Laboratory results as given in publication PMC12406253, “Exploration of the Neuromodulatory Properties of Fyn and GSK-3β Kinases Exploiting 7‑Azaindole-Based Inhibitors” (Journal of Medicinal Chemistry, 2025).
Structures can show the parent of a compound that is named as a salt.

Assays:
human recombinant GSK-3β = human recombinant GSK-3β (Homo sapiens, UniProt P49841); test: GSK-3β kinase assay, LANCE Ultra TR-FRET; type: biochemical; conditions: for IC50: mean ± SD of at least three independent determinations, ATP near Km
Protocol: GSK-3β and FYNα kinase assays were run in 384-well microplates (OptiPlate-384, White, PerkinElmer) in a total reaction volume of 20 μL. The inhibitory potency against human recombinant GSK-3β and FYNα (Carna Biosciences) was evaluated using the LANCE Ultra (PerkinElmer) time-resolved fluorescence resonance energy transfer (TR-FRET) by measuring the phosphorylation of the ULight-labeled substrate, according to the manufacturer's instructions. […] Briefly, test compounds and staurosporine (reference compound) or DMSO (control) are mixed with the enzyme (GSK-3β: 2 nM and FYNα: 1 nM) in a buffer containing 50 mM HEPES (pH 7.5), 1 mM EGTA, 10 mM MgCl2, 2 mM DTT, and 0.01% Tween-20. […] Following incubation, the reaction is stopped by adding 6 mM EDTA. After 5 min, the antiphospho antibody labeled with europium chelate is added. After 1 more hour, the kinase reaction is monitored by irradiation at 320 nm and the fluorescence measured at 615 and 665 nm, using EnVision 2014 Multilabel Reader (PerkinElmer). The calculated signal ratio at 665/615 nm is proportional to the extent of ULight-substrate phosphorylation. The compounds were tested at 11 different concentrations ranging from 3 nM up to 100 μM in triplicate. […] The results were expressed as a percent inhibition of the control enzyme activity. Dose-response curves were run in at least three independent experiments, performed in three technical replicates. IC50 values (concentrations causing half-maximal enzyme inhibition) were determined by nonlinear regression analysis of the Log[concentration]/response curves generated with mean replicate values using a four parameter Hill equation curve fitting with GraphPad Prism 8 (GraphPad Software Inc., CA-USA).

FYNα = FYNα (Homo sapiens, UniProt P06241); test: FYNα kinase assay, LANCE Ultra TR-FRET; type: biochemical; conditions: for Fyn % Inhibition @ 50 μM / inhibition at 50 µM: mean ± SD, n.i. = no inhibition; for inhibition at 50 µM: read-out: Fyn % Inhibition @ 50 μM; for IC50: mean ± SD of at least three independent determinations, ATP near Km, read-out: Fyn IC50
Protocol: GSK-3β and FYNα kinase assays were run in 384-well microplates (OptiPlate-384, White, PerkinElmer) in a total reaction volume of 20 μL. The inhibitory potency against human recombinant GSK-3β and FYNα (Carna Biosciences) was evaluated using the LANCE Ultra (PerkinElmer) time-resolved fluorescence resonance energy transfer (TR-FRET) by measuring the phosphorylation of the ULight-labeled substrate, according to the manufacturer’s instructions. The synthetic peptide surrounding Ser641 of human muscle glycogen synthase (ULight-GS (Ser641/pSer657)) and the synthetic 28-amino acid peptide containing eight Tyr residues placed in different amino acid contexts (ULightTM-TK (PT66)) were selected as specific substrates for GSK-3β and FYNα, respectively. Briefly, test compounds and staurosporine (reference compound) or DMSO (control) are mixed with the enzyme (GSK-3β: 2 nM and FYNα: 1 nM) in a buffer containing 50 mM HEPES (pH 7.5), 1 mM EGTA, 10 mM MgCl2, 2 mM DTT, and 0.01% Tween-20. […] Following incubation, the reaction is stopped by adding 6 mM EDTA. After 5 min, the antiphospho antibody labeled with europium chelate is added. After 1 more hour, the kinase reaction is monitored by irradiation at 320 nm and the fluorescence measured at 615 and 665 nm, using EnVision 2014 Multilabel Reader (PerkinElmer). The calculated signal ratio at 665/615 nm is proportional to the extent of ULight-substrate phosphorylation. The compounds were tested at 11 different concentrations ranging from 3 nM up to 100 μM in triplicate. […] The results were expressed as a percent inhibition of the control enzyme activity.
Dose–response curves were run in at least three independent experiments, performed in three technical replicates. IC50 values (concentrations causing half-maximal enzyme inhibition) were determined by nonlinear regression analysis of the Log[concentration]/response curves generated with mean replicate values using a four parameter Hill equation curve fitting with GraphPad Prism 8 (GraphPad Software Inc., CA-USA).

[1] = 50 μM, mean ± SD, n.i. = no inhibition

Chain of human recombinant GSK-3β (P49841 whole entry): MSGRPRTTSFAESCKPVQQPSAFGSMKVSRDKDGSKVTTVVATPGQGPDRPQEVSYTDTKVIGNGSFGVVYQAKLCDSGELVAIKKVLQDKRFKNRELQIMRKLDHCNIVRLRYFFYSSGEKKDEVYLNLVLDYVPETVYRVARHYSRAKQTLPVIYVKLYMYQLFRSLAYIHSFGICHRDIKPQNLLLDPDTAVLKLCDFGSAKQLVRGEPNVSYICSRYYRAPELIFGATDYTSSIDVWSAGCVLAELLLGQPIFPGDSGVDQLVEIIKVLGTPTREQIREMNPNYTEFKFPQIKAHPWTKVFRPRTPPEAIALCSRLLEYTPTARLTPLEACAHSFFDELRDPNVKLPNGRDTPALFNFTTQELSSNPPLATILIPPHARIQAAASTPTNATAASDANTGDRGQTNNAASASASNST
Chain of FYNα (P06241 whole entry): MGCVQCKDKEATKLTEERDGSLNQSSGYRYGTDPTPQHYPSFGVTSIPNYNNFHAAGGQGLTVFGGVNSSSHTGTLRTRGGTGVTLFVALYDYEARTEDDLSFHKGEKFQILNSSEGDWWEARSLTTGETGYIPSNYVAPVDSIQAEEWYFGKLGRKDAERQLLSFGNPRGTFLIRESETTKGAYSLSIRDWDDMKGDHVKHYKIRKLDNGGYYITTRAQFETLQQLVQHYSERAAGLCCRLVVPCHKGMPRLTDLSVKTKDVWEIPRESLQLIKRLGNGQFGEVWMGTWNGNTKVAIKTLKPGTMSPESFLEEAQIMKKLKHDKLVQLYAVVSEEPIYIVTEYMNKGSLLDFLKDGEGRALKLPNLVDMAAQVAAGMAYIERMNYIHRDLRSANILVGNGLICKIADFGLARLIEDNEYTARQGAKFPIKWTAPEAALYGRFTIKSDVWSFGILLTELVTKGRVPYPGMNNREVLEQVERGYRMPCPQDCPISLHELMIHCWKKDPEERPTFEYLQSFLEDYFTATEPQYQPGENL

## Br.Clc1ccc(Nc2nc(-c3c[nH]c4ncccc34)cs2)cc1 [Compound 13, N-(4-Chlorophenyl)-4-(1H-pyrrolo[2,3-b]pyridin-3-yl)thiazol-2-amine Hydrobromide]
Human recombinant GSK-3β; [1]
  inhibition at 50 µM: 14.8%
FYNα
  Fyn % Inhibition @ 50 μM: n.i.

## c1ccc(Nc2nc(-c3c[nH]c4ncccc34)cs2)nc1 [Compound 10, N-(Pyridin-2-yl)-4-(1H-pyrrolo[2,3-b]pyridin-3-yl)thiazol-2-amine Hydrobromide]
Human recombinant GSK-3β; [1]
  inhibition at 50 µM: 24.1%
FYNα
  inhibition at 50 µM: 3.7%

## Br.c1ccc(CNc2nc(-c3c[nH]c4ccccc34)cs2)cc1 [Compound 34]
Human recombinant GSK-3β; [1]
  GSK-3β % Inhibition @ 50 μM: n.i.
FYNα
  Fyn % Inhibition @ 50 μM: n.i.

## c1ccc(CNc2nc(-c3c[nH]c4ncccc34)cs2)cc1 [Compound 7, N-Benzyl-4-(1H-pyrrolo[2,3-b]pyridin-3-yl)thiazol-2-amine Hydrobromide]
FYNα
  IC50: 2.04 ± 0.53 µM

## COc1ccccc1CNc1nc(-c2c[nH]c3ncccc23)cs1 [Compound 17, N-(2-Methoxybenzyl)-4-(1H-pyrrolo[2,3-b]pyridin-3-yl)thiazol-2-amine Hydrobromide]
FYNα
  IC50: 7.29 ± 1.03 µM

## Nc1nc(-c2c[nH]c3ncccc23)cs1 [Compound I]
Human recombinant GSK-3β
  IC50: 6.84 ± 0.17 µM
FYNα
  inhibition at 50 µM: 47.2%

## Br.Cn1cc(-c2csc(NCc3ccccc3)n2)c2cccnc21 [Compound 35]
Human recombinant GSK-3β; [1]
  inhibition at 50 µM: 9.8%
FYNα
  Fyn % Inhibition @ 50 μM: n.i.

## COCCNc1nc(-c2c[nH]c3ncccc23)cs1 [Compound 3, N-(2-Methoxyethyl)-4-(1H-pyrrolo[2,3-b]pyridin-3-yl)thiazol-2-amine Hydrobromide]
Human recombinant GSK-3β; [1]
  inhibition at 50 µM: 58.8%
FYNα
  inhibition at 50 µM: 41.7%

## Br.c1ccc2c(Nc3nc(-c4c[nH]c5ncccc45)cs3)cccc2c1 [Compound 8, N-(Naphthalen-1-yl)-4-(1H-pyrrolo[2,3-b]pyridin-3-yl)thiazol-2-amine Hydrobromide]
Human recombinant GSK-3β; [1]
  inhibition at 50 µM: 5.1%
FYNα
  Fyn % Inhibition @ 50 μM: n.i.

## CN(C)c1ccc(Nc2nc(-c3c[nH]c4ncccc34)cs2)cc1 [Compound 15, N ^1-(4-(1H-Pyrrolo[2,3-b]pyridin-3-yl)thiazol-2-yl)-N,^4 N ^4-dimethylbenzene-1,4-diamine Hydrobromide]
FYNα
  inhibition at 50 µM: 11.4%

## c1ccc(Nc2nc(-c3c[nH]c4ncccc34)cs2)cc1 [Compound 6, N-Phenyl-4-(1H-pyrrolo[2,3-b]pyridin-3-yl)thiazol-2-amine]
FYNα
  inhibition at 50 µM: 40%

## Cc1ccc(CNc2nc(-c3c[nH]c4ncccc34)cs2)cc1 [Compound 22, N-(4-Methylbenzyl)-4-(1H-pyrrolo[2,3-b]pyridin-3-yl)thiazol-2-amine Hydrobromide]
Human recombinant GSK-3β; read-out: GSK-3β percentage of inhibition at the highest dose tested (100 μM)
  inhibition at 100 µM: 77.1%

## Br.Clc1cccc2c(-c3csc(NCc4ccccc4)n3)c[nH]c12 [Compound 37]
FYNα
  Fyn % Inhibition @ 50 μM: n.i.

## Br.Cc1ccc(Nc2nc(-c3c[nH]c4ncccc34)cs2)cc1 [Compound 11, 4-(1H-Pyrrolo[2,3-b]pyridin-3-yl)-N-(p-tolyl)thiazol-2-amine Hydrobromide]
Human recombinant GSK-3β; [1]
  inhibition at 50 µM: 50.1%
FYNα
  Fyn % Inhibition @ 50 μM: n.i.

## Clc1ccccc1Nc1nc(-c2c[nH]c3ncccc23)cs1 [Compound 9, N-(2-Chlorophenyl)-4-(1H-pyrrolo[2,3-b]pyridin-3-yl)thiazol-2-amine Hydrobromide]
Human recombinant GSK-3β; [1]
  inhibition at 50 µM: 32.7%
FYNα
  inhibition at 50 µM: 55%

## Br.C=CCn1cc(-c2csc(NCc3ccccc3)n2)c2cccnc21 [Compound 36]
Human recombinant GSK-3β; [1]
  inhibition at 50 µM: 4%
FYNα
  Fyn % Inhibition @ 50 μM: n.i.

## Br.c1cnc2[nH]cc(-c3csc(NC4CCCCC4)n3)c2c1 [Compound 5, N-Cyclohexyl-4-(1H-pyrrolo[2,3-b]pyridin-3-yl)thiazol-2-amine Hydrobromide]
Human recombinant GSK-3β; [1]
  inhibition at 50 µM: 37.4%
FYNα
  Fyn % Inhibition @ 50 μM: n.i.

## Nc1ccc(CNc2nc(-c3c[nH]c4ncccc34)cs2)cc1 [Compound 25]
FYNα
  IC50: 18.5 ± 2.49 µM

## c1cnc(CNc2nc(-c3c[nH]c4ncccc34)cs2)nc1 [Compound 29, N-(Pyrimidin-2-ylmethyl)-4-(1H-pyrrolo[2,3-b]pyridin-3-yl)thiazol-2-amine Hydrobromide]
FYNα
  IC50: 15 ± 1.26 µM

## Br.CCCCNc1nc(-c2c[nH]c3ncccc23)cs1 [Compound 2, N-Butyl-4-(1H-pyrrolo[2,3-b]pyridin-3-yl)thiazol-2-amine Hydrobromide]
Human recombinant GSK-3β; [1]
  inhibition at 50 µM: 54.9%
FYNα
  Fyn % Inhibition @ 50 μM: n.i.

## Clc1ccccc1CNc1nc(-c2c[nH]c3ncccc23)cs1 [Compound 18, N-(2-Chlorobenzyl)-4-(1H-pyrrolo[2,3-b]pyridin-3-yl)thiazol-2-amine Hydrobromide]
FYNα
  IC50: 5.37 ± 1.29 µM

## c1cnc2[nH]cc(-c3csc(NCc4cnccn4)n3)c2c1 [Compound 30, N-(Pyrazin-2-ylmethyl)-4-(1H-pyrrolo[2,3-b]pyridin-3-yl)thiazol-2-amine Hydrobromide]
FYNα
  IC50: 7.39 ± 0.37 µM

## O=[N+]([O-])c1ccc(CNc2nc(-c3c[nH]c4ncccc34)cs2)cc1 [Compound 24, N-(4-Nitrobenzyl)-4-(1H-pyrrolo[2,3-b]pyridin-3-yl)thiazol-2-amine Hydrobromide]
FYNα
  IC50: 5.21 ± 0.51 µM

## Br.O=C(Nc1nc(-c2c[nH]c3ncccc23)cs1)c1ccccc1 [Compound 32, N-(4-(1H-Pyrrolo[2,3-b]pyridin-3-yl)thiazol-2-yl)benzamide Hydrobromide]
FYNα
  Fyn % Inhibition @ 50 μM: n.i.

## CNc1nc(-c2c[nH]c3ncccc23)cs1 [Compound 1, N-Methyl-4-(1H-pyrrolo[2,3-b]pyridin-3-yl)thiazol-2-amine Hydrobromide]
Human recombinant GSK-3β; [1]
  inhibition at 50 µM: 65.8%
FYNα
  inhibition at 50 µM: 22.3%

## Br.O=[N+]([O-])c1ccc(Nc2nc(-c3c[nH]c4ncccc34)cs2)cc1 [Compound 14, N-(4-Nitrophenyl)-4-(1H-pyrrolo[2,3-b]pyridin-3-yl)thiazol-2-amine Hydrobromide]
Human recombinant GSK-3β; [1]
  inhibition at 50 µM: 8%
FYNα
  Fyn % Inhibition @ 50 μM: n.i.

## Brc1cnc2[nH]cc(-c3csc(NCc4ccccc4)n3)c2c1 [Compound 38, N-Benzyl-4-(5-bromo-1H-pyrrolo[2,3-b]pyridin-3-yl)thiazol-2-amine Hydrobromide]
FYNα
  IC50: 0.55 ± 0.02 µM

## c1ccc(CCNc2nc(-c3c[nH]c4ncccc34)cs2)cc1 [Compound 31, N-Phenethyl-4-(1H-pyrrolo[2,3-b]pyridin-3-yl)thiazol-2-amine Hydrobromide]
Human recombinant GSK-3β
  IC50: 7.5 ± 1.29 µM

## C=CCNc1nc(-c2c[nH]c3ncccc23)cs1 [Compound 4, N-Allyl-4-(1H-pyrrolo[2,3-b]pyridin-3-yl)thiazol-2-amine Hydrobromide]
Human recombinant GSK-3β; [1]
  inhibition at 50 µM: 61.6%
FYNα
  inhibition at 50 µM: 28.5%

## Nc1ccc(Nc2nc(-c3c[nH]c4ncccc34)cs2)cc1 [Compound 16]
FYNα
  inhibition at 50 µM: 42.9%

## Clc1cccc(CNc2nc(-c3c[nH]c4ncccc34)cs2)c1 [Compound 19, N-(3-Chlorobenzyl)-4-(1H-pyrrolo[2,3-b]pyridin-3-yl)thiazol-2-amine Hydrobromide]
FYNα
  IC50: 4.71 ± 0.55 µM

## Cc1sc(NCc2ccccc2)nc1-c1c[nH]c2ncccc12 [Compound 39, N-Benzyl-5-methyl-4-(1H-pyrrolo[2,3-b]pyridin-3-yl)thiazol-2-amine Hydrobromide]
FYNα
  IC50: 0.39 ± 0.11 µM

## Br.Clc1ccc(CNc2nc(-c3c[nH]c4ncccc34)cs2)cc1 [Compound 20, N-(4-Chlorobenzyl)-4-(1H-pyrrolo[2,3-b]pyridin-3-yl)thiazol-2-amine Hydrobromide]
FYNα
  Fyn % Inhibition @ 50 μM: n.i.

## Fc1ccc(CNc2nc(-c3c[nH]c4ncccc34)cs2)cc1 [Compound 21, N-(4-Fluorobenzyl)-4-(1H-pyrrolo[2,3-b]pyridin-3-yl)thiazol-2-amine Hydrobromide]
FYNα
  IC50: 7.1 ± 0.47 µM
